Measured values: ChEMBL document CHEMBL5108080 (J Med Chem, 2022)
The source made the active and inactive calls. The calls are words filed in the database; no cut-off is given here.

Columns and labels:
[1] = system: Influenza A virus; experiment: Antiviral activity against group 2 influenza A H7N1 pseudotyped virus infected in A549 cells assessed as inhibition of viral entry incubated for 48 hrs by measuring luciferase activity by Neolite reporter gene assay; type: functional, organism-based; details: H7N1, A549, 48 h
[2] = Selectivity index, ratio of CC50 for human A549 cells to IC50 for group 2 influenza A H7N1 pseudotyped virus infected in A549 cells; type: toxicity, cell-based; details: read-out: Ratio CC50/IC50
[3] = Cytotoxicity against human A549 cells incubated for 48 hrs by celltiter-glo luminescent cell viability assay; type: toxicity, cell-based
[4] = system: Influenza A virus; experiment: Antiviral activity against group 2 influenza A virus H7N1 wild type; type: functional, organism-based
[5] = system: Vesicular stomatitis virus; experiment: Antiviral activity against VSV pseudotyped virus infected in A549 cells assessed as inhibition of viral entry incubated for 48 hrs by measuring luciferase activity by Neolite reporter gene assay; type: functional, organism-based; details: A549, 48 h
[6] = system: Influenza A virus; experiment: (§1) Antiviral activity against group 2 influenza A virus H3N2 (A/Victoria/361/2011) infected in MDCK cells infected with supernatant of compound treated virus-producing human A549 cells assessed as reduction in viral titer at 1 to 10 uM treated for 48 hrs with virus-producing human A549 cells followed by MDCK cells infection for 48 hrs by crystal violet staining based plaque assay; type: functional, organism-based; details: dose 1-10 µM, time 96.0 hrs
[7] = system: Influenza A virus; experiment: Antiviral activity against […] influenza A H5N1 pseudotyped virus infected in A549 cells assessed as inhibition of viral entry incubated for 48 hrs by measuring luciferase activity by Neolite reporter gene assay; type: functional, organism-based; details: H5N1, A549, 48 h
[8] = system: Influenza A virus; experiment: as §1, with “(A/Hong Kong-11/1968)” for “(A/Victoria/361/2011)”; type: functional, organism-based; details: dose 1-10 µM, time 96.0 hrs
[9] = Selectivity index, ratio of CC50 for human A549 cells to IC50 for VSV pseudotyped virus infected in A549 cells; type: toxicity, cell-based; details: read-out: Ratio CC50/IC50
[10] = Selectivity index, ratio of CC50 for human A549 cells to IC50 for […] influenza A H5N1 pseudotyped virus infected in A549 cells; type: toxicity, cell-based; details: read-out: Ratio CC50/IC50

Compound | IC50 [1] [µM] | selectivity ratio [2] | CC50 at 48 h [3] [µM] | IC50 [4] [µM] | IC50 [5] [µM] | Activity [6] | IC50 [7] [µM] | Activity [8] | selectivity ratio [9] | selectivity ratio [10]
Oc1cccc(-c2nc3ncccn3c2NC2CCCCC2)c1 | 10 | 10 | 100 | – | – | – | – | – | – | –
CCCCOc1ccc(-c2nc3ncccn3c2Nc2ccccc2)cc1 | 100 | 1 | 100 | – | – | – | – | – | – | –
O=C(O)CCCOc1ccc(-c2nc3ncccn3c2NC2CCCCC2)cc1 | 0.18 | > 560 | > 100 | – | – | – | – | – | – | –
CCCCOc1ccc(-c2nc3ncccn3c2NC(C)(C)CC(C)(C)C)cc1 | 2.3 | 13 | 29 | – | – | – | – | – | – | –
CCNC(=O)CCCOc1ccc(-c2nc3ncccn3c2NC2CCCCC2)cc1 | 0.064 | > 1600 | > 100 | – | – | – | – | – | – | –
CCCCOc1ccc(-c2nc3ncccn3c2NCc2ccccn2)cc1 | 16 | > 6 | > 100 | – | – | – | – | – | – | –
COc1ccc(-c2nc3ncccn3c2NC2CCCCC2)cc1 | 0.037 | – | > 100 | 0.019 | 100 | Active | > 100 | Active | – | –
CCCCOc1ccc(-c2nc3ncccn3c2NCCC)cc1 | 22 | > 5 | > 100 | – | – | – | – | – | – | –
CCCCOc1ccc(-c2nc3ncccn3c2NCc2c[nH]cn2)cc1 | 38 | > 3 | > 100 | – | – | – | – | – | – | –
CCCCOc1ccc(-c2nc3ncccn3c2NC(C)C)cc1 | 2.3 | 30 | 68 | – | – | – | – | – | – | –
CCOC(=O)C1=C[C@@H](OC(CC)CC)[C@H](NC(C)=O)[C@@H](N)C1 [OSELTAMIVIR] | – | – | – | – | – | Active | – | Active | – | –
CCCCOc1ccc(-c2nc3ncccn3c2N)cc1 | 100 | > 1 | > 100 | – | – | – | – | – | – | –
CCCCOc1ccc(-c2nc3ncccn3c2NCc2nc[nH]c2C)cc1 | 100 | 1 | 100 | – | – | – | – | – | – | –
COc1ccccc1-c1nc2ncccn2c1NC1CCCCC1 | 2.3 | > 43 | > 100 | – | > 100 | – | > 100 | – | < 1 | < 1
Cc1cc(C)n2c(NC3CCCCC3)c(-c3ccc(Br)cc3)nc2n1 | 0.36 | 51 | 32 | – | – | – | – | – | – | –
CCCCOc1ccc(-c2nc3ncccn3c2NCC2CCCCC2)cc1 | 0.31 | 110 | 35 | – | – | – | – | – | – | –
Brc1ccc(-c2nc3ncccn3c2Nc2ccccc2)cc1 | 1.5 | > 67 | > 100 | – | – | – | – | – | – | –
COCCCCOc1ccc(-c2nc3ncccn3c2NC2CCCCC2)cc1 | 0.25 | 400 | 100 | – | 40 | Active | 92 | Active | 2 | 1
COCCOc1ccc(-c2nc3ncccn3c2Nc2ccccc2)cc1 | 5.2 | > 19 | > 100 | – | – | – | – | – | – | –
CCOC(=O)CCCOc1ccc(-c2nc3ncccn3c2NC2CCCCC2)cc1 | 1.8 | > 560 | > 100 | – | – | – | – | – | – | –
CCCCOc1ccc(-c2nc3ncccn3c2NC2CCCCCC2)cc1 | 0.44 | 59 | 26 | – | – | – | – | – | – | –
CCCCOc1ccc(-c2nc3ncccn3c2NCc2ccco2)cc1 | 7.9 | 10 | 78 | – | – | – | – | – | – | –
Nc1nc2ncccn2c1-c1ccc(Br)cc1 | 100 | > 1 | > 100 | – | – | – | – | – | – | –
COCCOc1ccc(-c2nc3ncccn3c2NC2CCCCC2)cc1 | 0.08 | > 1300 | > 100 | – | – | – | – | – | – | –
COc1ccccc1-c1nc2ncccn2c1N(C(C)=O)C1CCCCC1 | > 100 | > 1 | > 100 | – | – | – | – | – | – | –
Cc1cc(C)n2c(Nc3ccc4c(c3)OCCO4)c(-c3cccc(Br)c3)nc2n1 | 0.25 | > 400 | > 100 | – | – | – | – | – | – | –
CCCCOc1ccc(-c2nc3ncccn3c2NC2CCCCC2)c(C)c1 | 0.22 | 150 | 32 | – | – | – | – | – | – | –

Compound | IC50 [1] [µM] | selectivity ratio [2] | CC50 at 48 h [3] [µM] | IC50 [4] [µM] | IC50 [5] [µM] | Activity [6] | IC50 [7] [µM] | Activity [8] | selectivity ratio [9] | selectivity ratio [10]
CCCCOc1ccc(-c2nc3ncccn3c2Nc2ccccc2)c(C)c1 | 4.5 | 5.1 | 23 | – | – | – | – | – | – | –
Brc1ccc(-c2nc3ncccn3c2NC2CCCCC2)c(CN2CCOCC2)c1 | 9.9 | 5 | 54 | – | 60 | – | 32 | – | < 1 | > 1
Oc1ccccc1-c1nc2ncccn2c1NC1CCCCC1 | 10 | > 10 | > 100 | – | – | – | – | – | – | –
Clc1ccc(-c2nc3ncccn3c2NC2CCCCC2)cc1 | 0.15 | > 670 | > 100 | – | 36 | Active | > 100 | Active | > 2 | > 1
CC(C)(C)CC(C)(C)Nc1nc2ncccn2c1-c1ccc(Br)cc1 | 8.6 | > 12 | > 100 | – | – | – | – | – | – | –
c1ccc(-c2nc3ncccn3c2NC2CCCCC2)cc1 | 0.66 | – | 100 | – | 74 | Active | 46 | Active | – | –
Cc1cc(Br)ccc1-c1nc2ncccn2c1Nc1ccccc1 | 2.2 | 18 | 40 | – | 100 | – | > 100 | – | 1 | < 1
CCCCOc1ccc(-c2nc3ncccn3c2NCC2CC2)cc1 | 25 | > 4 | > 100 | – | – | – | – | – | – | –
CCCCOc1ccc(-c2nc3ncccn3c2N2C(=O)c3cccc(O)c3C2=O)cc1 | 15 | > 6.6 | > 100 | – | – | – | – | – | – | –
Fc1ccc(COc2ccc(-c3nc4ncccn4c3NC3CCCCC3)cc2)cc1 | 0.26 | 92 | 24 | – | – | – | – | – | – | –
CCCCOc1ccc(-c2nc3ncccn3c2NCc2ccc3ccccc3c2)cc1 | 6 | 6 | 33 | – | – | – | – | – | – | –
Fc1ccc(-c2nc3ncccn3c2NC2CCCCC2)cc1 | 0.023 | – | 100 | – | 53 | Active | 46 | Active | – | –
c1cnc2nc(-c3ccc(OC4CCCC4)cc3)c(NC3CCCCC3)n2c1 | 0.68 | 57 | 39 | – | – | – | – | – | – | –
CCCCOc1ccc(-c2nc3ncccn3c2NCc2ccc(OC)cc2)cc1 | 14 | 4 | 55 | – | – | – | – | – | – | –
CCCCOc1ccc(-c2c(N)nc3ncccn23)cc1 | 58 | > 1.7 | > 100 | – | – | – | – | – | – | –
Oc1ccc(-c2nc3ncccn3c2NC2CCCCC2)cc1 | 0.052 | – | > 100 | – | 65 | Active | 36 | Active | – | –
CCCCOc1ccc(-c2nc3ncccn3c2NC2CCCC2)cc1 | 1.5 | 27 | 40 | – | – | – | – | – | – | –
Cc1cc(Br)ccc1-c1nc2ncccn2c1NC1CCCCC1 | 0.17 | – | 45 | – | 39 | Active | 45 | Active | – | –
FC(F)(F)c1cc(Br)ccc1-c1nc2ncccn2c1NC1CCCCC1 | 1.4 | 18 | 25 | – | 24 | Active | 20 | Active | 1 | 1
CCCCOc1ccc(-c2nc3ncccn3c2Nc2ccc(F)cc2)cc1 | 1.5 | > 67 | > 100 | – | – | – | – | – | – | –
Brc1ccc(-c2nc3ncccn3c2NC2CCCCC2)cc1 | 0.2 | – | > 100 | – | 42 | Active | > 100 | Active | – | –
CC(C)(C)CC(C)(C)Nc1c(-c2ccc(Br)cc2)nc2ncccn12 | 1 | 32 | 32 | – | – | – | – | – | – | –
CN(c1c(-c2ccc(F)cc2)nc2ncccn12)C1CCCCC1 | 1.3 | > 77 | > 100 | – | – | – | – | – | – | –
CCCCOc1ccc(-c2c(NC(C)(C)CC(C)(C)C)nc3ncccn23)cc1 | 8.1 | 6 | 49 | – | – | – | – | – | – | –
CCCCOc1ccc(-c2nc3ncccn3c2NC2CCCCC2)cc1 | 0.67 | 78 | 52 | – | 36 | – | 84 | – | 2 | 1
Nc1c(-c2ccc(Br)cc2)nc2ncccn12 | 100 | > 1 | > 100 | – | – | – | – | – | – | –
